Results: paper PMC7551932 (Toxins, 2020)
Entries after “also recorded” stand apart in the source; their conditions may differ. Where a SMILES comes first, the peptide text is derived from it. Bridges are numbered along the chain shown (N, C = ends). Where no end group is shown, it is not given here.

Columns and labels:
NaV1.7 [1] = target: T1, NaV1.7 (Homo sapiens, UniProt Q15858); test: NaV1.7 gating kinetics (I–V, activation, inactivation, repriming); conditions: 10 nM toxin; for Reduction of NaV1.7 channel current: at –5 mV, n = 10
N-type calcium channels = conditions: cited from earlier work
[2] = system: TTX-sensitive sodium channel; conditions: cited from earlier work
NaV1.7 [3] = conditions: cited from earlier work
NaV1.7 [4] = target: T1, NaV1.7; test: Time course of block and washout of NaV1.7 peak current; conditions: 100 nM toxin, n = 3
[5] = system: TTX-R sodium channels (NaV1.5, NaV1.8, and NaV1.9); type: cell-based
NaV1.7 over NaV1.4 = test: Selectivity of NaV1.7 over NaV1.4; type: cell-based; conditions: Cl6a
rNaV1.2 = target: T2, rNaV1.2 (Rattus norvegicus, UniProt P04775); test: cell-based; type: cell-based
T2 construct: expressed in transfected cells; host or cells: HEK293T

rNaV1.8 = type: cell-based, rat
[6] = system: TTX-S sodium channels (NaV1.2–1.4, NaV1.6, and NaV1.7); type: cell-based
mNaV1.6 = target: T3, mNaV1.6 (Mus musculus, UniProt Q9WTU3); test: cell-based; type: cell-based
T3 construct: expressed in transfected cells; host or cells: HEK293T

rNaV1.4 = target: T4, rNaV1.4 (Rattus norvegicus, UniProt P15390); test: cell-based; type: cell-based
T4 construct: expressed in transfected cells; host or cells: HEK293T

hNaV1.9 = type: cell-based, human
rNaV1.3 = target: T5, rNaV1.3 (Rattus norvegicus, UniProt P08104); test: cell-based; type: cell-based
T5 construct: expressed in transfected cells; host or cells: HEK293T

hNaV1.7 = target: T6, hNaV1.7 (Homo sapiens, UniProt Q15858); test: cell-based; type: cell-based
T6 construct: expressed in transfected cells; host or cells: HEK293T

hNaV1.5 = type: cell-based, human

T1 sequence (Q07699 19-218): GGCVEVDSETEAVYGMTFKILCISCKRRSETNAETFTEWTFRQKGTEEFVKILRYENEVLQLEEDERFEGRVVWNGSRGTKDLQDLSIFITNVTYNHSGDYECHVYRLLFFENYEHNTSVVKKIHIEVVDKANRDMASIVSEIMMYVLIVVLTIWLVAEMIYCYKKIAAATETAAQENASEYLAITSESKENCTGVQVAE
T1 sequence (Q15858 other isoform, or with tags, fused parts or gaps): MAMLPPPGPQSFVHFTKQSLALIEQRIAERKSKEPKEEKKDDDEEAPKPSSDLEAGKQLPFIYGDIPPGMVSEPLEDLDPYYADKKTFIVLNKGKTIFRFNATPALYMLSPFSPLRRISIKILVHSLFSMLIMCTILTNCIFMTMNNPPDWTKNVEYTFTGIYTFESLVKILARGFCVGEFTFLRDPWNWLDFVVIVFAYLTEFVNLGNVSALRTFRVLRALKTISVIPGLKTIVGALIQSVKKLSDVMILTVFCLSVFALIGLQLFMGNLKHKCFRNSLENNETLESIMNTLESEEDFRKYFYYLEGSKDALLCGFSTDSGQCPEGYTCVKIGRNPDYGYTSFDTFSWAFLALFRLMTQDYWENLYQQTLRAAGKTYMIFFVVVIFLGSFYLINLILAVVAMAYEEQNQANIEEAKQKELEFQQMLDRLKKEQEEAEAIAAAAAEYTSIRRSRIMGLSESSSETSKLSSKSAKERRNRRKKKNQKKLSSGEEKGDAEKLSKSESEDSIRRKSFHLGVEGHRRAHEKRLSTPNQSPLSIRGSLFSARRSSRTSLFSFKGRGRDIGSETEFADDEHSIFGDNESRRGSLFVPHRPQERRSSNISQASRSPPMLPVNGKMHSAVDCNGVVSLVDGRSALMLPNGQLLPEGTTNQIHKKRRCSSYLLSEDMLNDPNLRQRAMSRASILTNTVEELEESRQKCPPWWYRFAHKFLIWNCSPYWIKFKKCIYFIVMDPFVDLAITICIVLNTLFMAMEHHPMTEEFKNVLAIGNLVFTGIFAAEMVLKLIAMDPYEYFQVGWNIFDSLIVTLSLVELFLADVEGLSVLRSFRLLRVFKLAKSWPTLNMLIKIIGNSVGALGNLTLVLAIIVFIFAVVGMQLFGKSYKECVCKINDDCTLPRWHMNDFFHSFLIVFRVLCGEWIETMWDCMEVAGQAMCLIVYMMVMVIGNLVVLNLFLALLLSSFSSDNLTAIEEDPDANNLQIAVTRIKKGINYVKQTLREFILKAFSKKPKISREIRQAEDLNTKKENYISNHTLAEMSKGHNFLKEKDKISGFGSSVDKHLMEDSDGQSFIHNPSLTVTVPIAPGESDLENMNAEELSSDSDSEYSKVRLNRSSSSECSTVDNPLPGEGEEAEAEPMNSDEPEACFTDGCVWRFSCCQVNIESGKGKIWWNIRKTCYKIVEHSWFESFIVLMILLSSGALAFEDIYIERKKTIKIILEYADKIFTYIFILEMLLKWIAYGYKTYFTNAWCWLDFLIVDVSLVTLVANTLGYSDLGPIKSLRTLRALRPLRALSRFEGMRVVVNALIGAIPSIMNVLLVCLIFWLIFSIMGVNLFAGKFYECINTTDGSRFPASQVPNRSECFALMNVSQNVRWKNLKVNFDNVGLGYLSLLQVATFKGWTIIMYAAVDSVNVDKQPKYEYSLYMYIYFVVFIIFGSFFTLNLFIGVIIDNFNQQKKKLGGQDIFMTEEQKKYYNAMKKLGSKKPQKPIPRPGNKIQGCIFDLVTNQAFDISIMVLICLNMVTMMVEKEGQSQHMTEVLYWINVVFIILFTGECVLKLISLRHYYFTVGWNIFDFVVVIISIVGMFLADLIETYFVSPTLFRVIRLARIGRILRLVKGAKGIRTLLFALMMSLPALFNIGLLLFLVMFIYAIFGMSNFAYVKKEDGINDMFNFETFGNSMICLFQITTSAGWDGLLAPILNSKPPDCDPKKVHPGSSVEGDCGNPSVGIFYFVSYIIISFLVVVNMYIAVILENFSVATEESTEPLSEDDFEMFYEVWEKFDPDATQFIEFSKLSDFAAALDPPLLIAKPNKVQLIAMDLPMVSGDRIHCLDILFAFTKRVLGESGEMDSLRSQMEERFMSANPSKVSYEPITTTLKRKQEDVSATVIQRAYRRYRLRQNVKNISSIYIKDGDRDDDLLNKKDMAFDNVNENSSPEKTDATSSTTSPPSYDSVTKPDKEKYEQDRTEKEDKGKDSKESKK
T1 sequence (O60939 30-215, further chain): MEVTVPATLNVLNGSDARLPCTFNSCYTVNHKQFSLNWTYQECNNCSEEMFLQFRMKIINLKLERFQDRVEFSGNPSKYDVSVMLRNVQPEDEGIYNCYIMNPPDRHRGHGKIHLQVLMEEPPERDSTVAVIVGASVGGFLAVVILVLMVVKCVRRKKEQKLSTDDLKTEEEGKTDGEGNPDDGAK
T6 sequence (Q15858 other isoform, or with tags, fused parts or gaps): as the sequence (Q15858 other isoform, or with tags, fused parts or gaps) above
T6 sequence (O60939 30-215, further chain): as the sequence (O60939 30-215, further chain) above
T6 sequence (Q07699 19-218, further chain): as the sequence (Q07699 19-218) above
T2 sequence (P04775 whole entry): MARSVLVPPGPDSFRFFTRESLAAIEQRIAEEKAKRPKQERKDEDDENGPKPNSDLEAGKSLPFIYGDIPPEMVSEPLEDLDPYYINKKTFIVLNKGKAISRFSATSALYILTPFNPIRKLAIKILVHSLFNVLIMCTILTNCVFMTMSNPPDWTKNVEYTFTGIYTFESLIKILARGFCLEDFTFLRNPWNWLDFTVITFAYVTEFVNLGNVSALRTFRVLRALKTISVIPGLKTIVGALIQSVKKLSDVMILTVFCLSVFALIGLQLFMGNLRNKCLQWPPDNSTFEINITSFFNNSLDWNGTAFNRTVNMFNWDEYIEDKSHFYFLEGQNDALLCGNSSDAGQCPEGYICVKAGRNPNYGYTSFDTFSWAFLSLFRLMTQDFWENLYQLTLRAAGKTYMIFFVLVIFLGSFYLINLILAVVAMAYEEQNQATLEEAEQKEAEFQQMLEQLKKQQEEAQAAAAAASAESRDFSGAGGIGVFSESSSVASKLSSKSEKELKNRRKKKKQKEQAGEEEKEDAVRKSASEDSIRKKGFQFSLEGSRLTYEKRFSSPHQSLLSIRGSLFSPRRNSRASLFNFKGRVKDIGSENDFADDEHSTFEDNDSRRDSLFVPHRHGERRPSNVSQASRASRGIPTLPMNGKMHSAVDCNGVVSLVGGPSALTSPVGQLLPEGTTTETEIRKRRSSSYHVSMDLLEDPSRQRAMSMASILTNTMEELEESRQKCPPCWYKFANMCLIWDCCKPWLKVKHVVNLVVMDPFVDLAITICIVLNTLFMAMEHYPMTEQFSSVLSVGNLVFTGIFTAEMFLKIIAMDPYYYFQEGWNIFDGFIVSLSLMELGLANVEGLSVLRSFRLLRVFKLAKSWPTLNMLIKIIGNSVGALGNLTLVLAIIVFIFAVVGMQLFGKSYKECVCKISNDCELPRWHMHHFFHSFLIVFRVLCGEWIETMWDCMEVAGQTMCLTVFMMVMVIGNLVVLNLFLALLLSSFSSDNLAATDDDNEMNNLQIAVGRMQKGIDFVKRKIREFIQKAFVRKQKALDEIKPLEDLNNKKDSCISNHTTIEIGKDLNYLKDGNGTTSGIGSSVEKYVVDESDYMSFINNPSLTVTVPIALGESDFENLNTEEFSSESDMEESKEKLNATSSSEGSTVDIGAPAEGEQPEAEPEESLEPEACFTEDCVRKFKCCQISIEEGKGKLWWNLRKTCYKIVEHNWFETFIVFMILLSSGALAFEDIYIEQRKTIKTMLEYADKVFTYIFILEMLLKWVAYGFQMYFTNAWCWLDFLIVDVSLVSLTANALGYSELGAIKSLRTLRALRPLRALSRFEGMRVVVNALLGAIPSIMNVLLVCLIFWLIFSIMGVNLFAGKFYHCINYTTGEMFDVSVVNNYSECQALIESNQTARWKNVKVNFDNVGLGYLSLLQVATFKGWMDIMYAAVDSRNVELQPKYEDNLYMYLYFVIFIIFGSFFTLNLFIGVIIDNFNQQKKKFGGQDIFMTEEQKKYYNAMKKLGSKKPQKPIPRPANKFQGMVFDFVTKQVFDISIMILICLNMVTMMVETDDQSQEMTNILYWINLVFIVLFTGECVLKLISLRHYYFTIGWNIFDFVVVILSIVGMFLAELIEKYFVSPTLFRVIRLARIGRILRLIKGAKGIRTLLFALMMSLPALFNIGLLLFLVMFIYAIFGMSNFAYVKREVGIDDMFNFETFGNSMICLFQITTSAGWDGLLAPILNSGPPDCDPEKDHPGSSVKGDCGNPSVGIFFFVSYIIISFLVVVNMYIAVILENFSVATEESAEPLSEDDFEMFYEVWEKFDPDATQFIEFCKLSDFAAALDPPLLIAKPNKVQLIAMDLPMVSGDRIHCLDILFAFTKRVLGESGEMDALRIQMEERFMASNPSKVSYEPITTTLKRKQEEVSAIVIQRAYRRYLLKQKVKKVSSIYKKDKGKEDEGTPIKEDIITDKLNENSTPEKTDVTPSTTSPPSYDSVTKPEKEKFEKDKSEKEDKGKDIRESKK

## CC[C@H](C)[C@H](NC(=O)[C@H](CCCCN)NC(=O)[C@H](Cc1ccc(O)cc1)NC(=O)[C@H](CCCCN)NC(=O)[C@@H]1CSSC[C@@H]2NC(=O)[C@H](CCC(=O)O)NC(=O)[C@H](CC(=O)O)NC(=O)[C@H](CCCCN)NC(=O)CNC(=O)[C@@H]3CCCN3C(=O)[C@H]([C@@H](C)O)NC(=O)[C@@H]3CSSC[C@H](NC(=O)[C@H](C(C)C)NC(=O)[C@H](Cc4c[nH]cn4)NC(=O)[C@H](CC(N)=O)NC(=O)[C@@H]4CCCN4C(=O)[C@H](CSSC[C@H](NC(=O)[C@H](C)N)C(=O)N[C@@H](CCCCN)C(=O)NCC(=O)N[C@@H]([C@@H](C)CC)C(=O)N[C@@H](Cc4ccccc4)C(=O)N[C@@H](C(C)C)C(=O)N[C@@H]([C@@H](C)O)C(=O)N3)NC2=O)C(=O)N[C@@H](CO)C(=O)N[C@@H](CO)C(=O)N[C@@H](CCCCN)C(=O)N[C@@H](Cc2c[nH]cn2)C(=O)N[C@@H](CCCCN)C(=O)N[C@@H](Cc2c[nH]c3ccccc23)C(=O)N1)C(=O)O [Cl6b] (H-ACKGIFVTCTPGKDECCPNHVCSSKHKWCKYKI-OH; disulfide 2-17, 9-22, 16-29)
NaV1.7 [1]
  Reduction of NaV1.7 channel current: 49.7%

## HWTX-I (ACKGVFDACTPGKNECCPNRVCSDKHKWCKWKL; ends and bridges not checked; cysteine pairing not given here; UniProt P56676 49-81, looked up)
N-type calcium channels
  N-type calcium channel inhibition: inhibitor of N-type calcium channels
[2]
  TTX-sensitive sodium channel inhibition: inhibitor of N-type calcium channels and a TTX-sensitive sodium channel

## HWTX-IV
NaV1.7 [3]
  Binding site on NaV1.7: site 4 toxins that interact with the DII S3–S4 linker of NaV1.7 channels

## CC[C@H](C)[C@H](NC(=O)[C@H](CCCCN)NC(=O)[C@H](Cc1c[nH]c2ccccc12)NC(=O)[C@H](CCCCN)NC(=O)[C@@H]1CSSC[C@@H]2NC(=O)[C@H](CCC(=O)O)NC(=O)[C@H](CC(N)=O)NC(=O)[C@H](CCCCN)NC(=O)CNC(=O)[C@@H]3CCCN3C(=O)[C@H]([C@@H](C)O)NC(=O)[C@@H]3CSSC[C@H](NC(=O)[C@H](C(C)C)NC(=O)[C@H](CCCNC(=N)N)NC(=O)[C@H](CC(N)=O)NC(=O)[C@@H]4CCCN4C(=O)[C@H](CSSC[C@H](NC(=O)[C@H](C)N)C(=O)N[C@@H](CCCCN)C(=O)NCC(=O)N[C@@H](C(C)C)C(=O)N[C@@H](Cc4ccccc4)C(=O)N[C@@H](CC(=O)O)C(=O)N4CCC[C@H]4C(=O)N3)NC2=O)C(=O)N[C@@H](CO)C(=O)N[C@@H](CC(=O)O)C(=O)N[C@@H](CCCCN)C(=O)N[C@@H](Cc2c[nH]cn2)C(=O)N[C@@H](CCCCN)C(=O)N[C@@H](Cc2c[nH]c3ccccc23)C(=O)N1)C(=O)O [Cl6a] (H-ACKGVFDPCTPGKNECCPNRVCSDKHKWCKWKI-OH; disulfide 2-17, 9-22, 16-29; N-terminus and C-terminus assumed)
NaV1.7 [4]; 5 min wash with bath solution
  Reversibility of NaV1.7 inhibition on washing: irreversibly inhibit NaV1.7 channel currents; also recorded: irreversible; also recorded: sustained inhibition of NaV1.7 channel currents
NaV1.7 [4]; mean ± SEM
  τon (onset of NaV1.7 peak current inhibition): 36.2 ± 5.3 s
[5]
  Inhibition of TTX-R sodium channels: not TTX-R (NaV1.5, NaV1.8, and NaV1.9)
NaV1.7 over NaV1.4
  Fold selectivity over NaV1.4: ~ 40 fold
rNaV1.2
  IC50: 56.1 ± 13.6 nM
  Inhibition of rNaV1.2 current: decreased
rNaV1.8
  Inhibition of rNaV1.8 current: No inhibitory effects
NaV1.7 [1]; NaV1.7, mean ± SEM, n = 6–10, control 6.2 ± 0.3 (Cl6a), 6.7 ± 0.4 (Cl6b)
  Voltage dependence of activation, k (toxin): 7.3 ± 0.4 mV
NaV1.7 [1]; NaV1.7, mean ± SEM, n = 6–10, control −5.4 ± 0.3 (Cl6a), −5.2 ± 0.3 (Cl6b)
  Voltage dependence of inactivation, k (toxin): −5.7 ± 0.4 mV
NaV1.7 [1]; NaV1.7, mean ± SEM, n = 6–10, control −19.5 ± 1.5 (Cl6a), −16.3 ± 0.4 (Cl6b)
  Voltage dependence of activation, V1/2 (toxin): −22.3 ± 1.7 mV
NaV1.7 [1]; NaV1.7, mean ± SEM, n = 6–10, control −78.3 ± 1.8 (Cl6a), −70.1 ± 1.5 (Cl6b)
  Voltage dependence of inactivation, V1/2 (toxin): −81.6 ± 2.4 mV
NaV1.7 [1]; NaV1.7, recovery at −100 mV, test pulse −10 mV, mean ± SEM, n = 9 (Cl6a), n = 7 (Cl6b), control 14.9 ± 2.4 (Cl6a), 6.3 ± 0.9 (Cl6b)
  Repriming (toxin): 17.6 ± 2.5 ms
NaV1.7 [1]
  Reduction of NaV1.7 channel current: 52.3%
NaV1.7 [1]; n = 6–10
  Effect on NaV1.7 activation and inactivation (gating): does not alter channel activation, inactivation, or repriming kinetics; also recorded: cannot significantly change the activation kinetics
[6]
  Inhibition of TTX-S sodium channels: can inhibit TTX-S, but not TTX-R, sodium channels; also recorded: inhibitors of tetrodotoxin-sensitive (TTX-S), but not TTX-resistant, sodium channels; also recorded: inhibited TTX-S (NaV1.2–1.4, NaV1.6, and NaV1.7)
mNaV1.6
  IC50: 9.2 ± 1.3 nM
  Inhibition of mNaV1.6 current: completely inhibited
rNaV1.4
  IC50: 480 ± 100 nM
  Inhibition of rNaV1.4 current: decreased
hNaV1.9
  Inhibition of hNaV1.9 current: No inhibitory effects
rNaV1.3
  IC50: 75.9 ± 6.3 nM
  Inhibition of rNaV1.3 current: decreased
hNaV1.7
  IC50: 11 ± 2.5 nM
  Inhibition of hNaV1.7 current: completely inhibited
hNaV1.5
  Inhibition of hNaV1.5 current: No inhibitory effects
